Results published in patent publication US11498899B2, “Nitrone herbicides” (FMC Corporation, priority 2016, dated 2022).

Key:
[1] = system: barnyardgrass (Echinochloa crus-galli); assay: Test A postemergence, visual injury rating 0-100; type: in vivo; settings: 0 to 100 scale
[2] = system: blackgrass (Alopecurus myosuroides); assay: Test A postemergence, visual injury rating 0-100; type: in vivo; settings: 0 to 100 scale
[3] = system: galium (catchweed bedstraw, Galium aparine); assay: Test A postemergence, visual injury rating 0-100; type: in vivo; settings: 0 to 100 scale
kochia (Kochia scoparia) [4] = assay: Test A postemergence, visual injury rating 0-100; type: in vivo; settings: 0 to 100 scale
[5] = system: ragweed (common ragweed, Ambrosia elatior); assay: Test A postemergence, visual injury rating 0-100; type: in vivo; settings: 0 to 100 scale
[6] = system: foxtail, giant (giant foxtail, Setaria faberii); assay: Test A postemergence, visual injury rating 0-100; type: in vivo; settings: 0 to 100 scale
[7] = system: pigweed (Amaranthus retroflexus); assay: Test A postemergence, visual injury rating 0-100; type: in vivo; settings: 0 to 100 scale
[8] = system: wheat (Triticum aestivum); assay: Test A postemergence, visual injury rating 0-100; type: in vivo; settings: 0 to 100 scale
corn (Zea mays) = assay: Test A postemergence, visual injury rating 0-100; type: in vivo; settings: 0 to 100 scale
[9] = system: ryegrass, Italian (Italian ryegrass, Lolium multiflorum); assay: Test A postemergence, visual injury rating 0-100; type: in vivo; settings: 0 to 100 scale
[10] = system: barnyardgrass (Echinochloa crus-galli); assay: Test B flooded paddy test, visual rating 0-100; settings: Flood, 250 g ai/ha, applied to paddy water, rated after 13 to 15 days
rice (Oryza sativa) = assay: Test B flooded paddy test, visual rating 0-100 (0 no effect, 100 complete control); settings: Flood, 250 g ai/ha, applied to paddy water, rated after 13 to 15 days
[11] = system: ducksalad (Heteranthera limosa); assay: Test B flooded paddy test, visual rating 0-100; settings: Flood, 250 g ai/ha, applied to paddy water, rated after 13 to 15 days
kochia (Kochia scoparia) [12] = assay: Test A preemergence, visual injury rating 0-100; type: in vivo; settings: for Kochia plant response rating: 0 to 100 scale (0 no effect, 100 complete control), approx. 10 days
[13] = system: ragweed (common ragweed, Ambrosia elatior); assay: Test A preemergence, visual injury rating 0-100; type: in vivo; settings: for Ragweed plant response rating: 0 to 100 scale (0 no effect, 100 complete control), approx. 10 days
[14] = system: foxtail, giant (giant foxtail, Setaria faberii); assay: Test A preemergence, visual injury rating 0-100; type: in vivo; settings: for Foxtail, Giant plant response rating: 0 to 100 scale (0 no effect, 100 complete control), approx. 10 days
[15] = system: pigweed (Amaranthus retroflexus); assay: Test A preemergence, visual injury rating 0-100; type: in vivo; settings: for Pigweed plant response rating: 0 to 100 scale (0 no effect, 100 complete control), approx. 10 days
[16] = system: ryegrass, Italian (Italian ryegrass, Lolium multiflorum); assay: Test A preemergence, visual injury rating 0-100; type: in vivo; settings: for Ryegrass, Italian plant response rating (0 to 100 scale): 500 g ai/ha; for Ryegrass, Italian plant response rating: 125 g ai/ha, 0 to 100 scale (0 no effect, 100 complete control), approx. 10 days
[17] = system: barnyardgrass (Echinochloa crus-galli); assay: Test A preemergence, visual injury rating 0-100 (0 no effect, 100 complete control); type: in vivo; settings: for Barnyardgrass plant response rating: 0 to 100 scale (0 no effect, 100 complete control), approx. 10 days

Row | SMILES | Barnyardgrass plant response rating ([1]; 125 g ai/ha) | Barnyardgrass plant response rating ([1]; 500 g ai/ha) | Blackgrass plant response rating ([2]; 125 g ai/ha) | Blackgrass plant response rating ([2]; 500 g ai/ha) | Galium plant response rating ([3]; 125 g ai/ha) | Galium plant response rating ([3]; 500 g ai/ha) | Kochia plant response rating (kochia (Kochia scoparia) [4]; 125 g ai/ha) | Kochia plant response rating (kochia (Kochia scoparia) [4]; 500 g ai/ha) | Ragweed plant response rating ([5]; 125 g ai/ha) | Ragweed plant response rating ([5]; 500 g ai/ha) | Foxtail, Giant plant response rating ([6]; 125 g ai/ha) | Foxtail, Giant plant response rating ([6]; 500 g ai/ha) | Pigweed plant response rating ([7]; 125 g ai/ha) | Pigweed plant response rating ([7]; 500 g ai/ha) | Wheat plant response rating ([8]; 125 g ai/ha) | Wheat plant response rating ([8]; 500 g ai/ha) | Corn plant response rating (corn (Zea mays); 125 g ai/ha) | Corn plant response rating (corn (Zea mays); 500 g ai/ha) | Ryegrass, Italian plant response rating ([9]; 125 g ai/ha) | Ryegrass, Italian plant response rating ([9]; 500 g ai/ha) | also measured
1 | CC1=[N+]([O-])C(C(=O)Nc2cccc(F)c2F)C(c2cc(F)c(C(F)(F)F)c(F)c2)C1 (racemic) [Compound 114] | 70 | 90 | 80 | 80 | 70 | 70 | 20 | 70 | 30 | 70 | 80 | 90 | 0 | 70 | 40 | 60 | 40 | 80 | 60 | 70 | Barnyardgrass plant response rating (0 to 100 scale) [10]: 40; Rice plant response rating (0 to 100 scale) (rice (Oryza sativa)): 30; Ducksalad plant response rating (0 to 100 scale) [11]: 60; Kochia plant response rating (0 to 100 scale) (kochia (Kochia scoparia) [12]; 125 g ai/ha): 20; Kochia plant response rating (0 to 100 scale) (kochia (Kochia scoparia) [12]; 500 g ai/ha): 80; Ragweed plant response rating (0 to 100 scale) ([13]; 125 g ai/ha): 80; Ragweed plant response rating (0 to 100 scale) ([13]; 500 g ai/ha): 90; Foxtail, Giant plant response rating (0 to 100 scale) ([14]; 125 g ai/ha): 90; Foxtail, Giant plant response rating (0 to 100 scale) ([14]; 500 g ai/ha): 90; Pigweed plant response rating (0 to 100 scale) ([15]; 125 g ai/ha): 50; Pigweed plant response rating (0 to 100 scale) ([15]; 500 g ai/ha): 80; Ryegrass, Italian plant response rating (0 to 100 scale) [16]: 90; Barnyardgrass plant response rating (0 to 100 scale) ([17]; 125 g ai/ha): 90; Barnyardgrass plant response rating (0 to 100 scale) ([17]; 500 g ai/ha): 90
2 | CC1=[N+]([O-])C(C(=O)Nc2cccc(F)c2F)C(c2cccc(Oc3ncc(Cl)cn3)c2)C1 (racemic) [Compound 115] | 0 | 60 | 40 | 80 | 40 | 70 | 0 | 20 | 0 | 20 | 0 | 70 | 0 | 20 | 10 | 50 | 0 | 60 | 0 | 60 | Barnyardgrass plant response rating (0 to 100 scale) [10]: 0; Rice plant response rating (0 to 100 scale) (rice (Oryza sativa)): 0; Ducksalad plant response rating (0 to 100 scale) [11]: 0; Kochia plant response rating (0 to 100 scale) (kochia (Kochia scoparia) [12]; 125 g ai/ha): 0; Kochia plant response rating (0 to 100 scale) (kochia (Kochia scoparia) [12]; 500 g ai/ha): 30; Ragweed plant response rating (0 to 100 scale) ([13]; 125 g ai/ha): 0; Ragweed plant response rating (0 to 100 scale) ([13]; 500 g ai/ha): 20; Foxtail, Giant plant response rating (0 to 100 scale) ([14]; 125 g ai/ha): 20; Foxtail, Giant plant response rating (0 to 100 scale) ([14]; 500 g ai/ha): 90; Pigweed plant response rating (0 to 100 scale) ([15]; 125 g ai/ha): 0; Pigweed plant response rating (0 to 100 scale) ([15]; 500 g ai/ha): 0; Ryegrass, Italian plant response rating (0 to 100 scale) [16]: 80; Barnyardgrass plant response rating (0 to 100 scale) ([17]; 125 g ai/ha): 90; Barnyardgrass plant response rating (0 to 100 scale) ([17]; 500 g ai/ha): 90
3 | CCOc1cc(OC)cc(C2CC(C)=[N+]([O-])C2C(=O)Nc2cccc(F)c2F)c1 (racemic) [Compound 116] | 50 | 80 | 80 | 80 | 0 | 20 | 0 | 20 | 0 | 0 | 60 | 90 | 0 | 0 | 20 | 70 | 30 | 60 | 0 | 80 | Barnyardgrass plant response rating (0 to 100 scale) [10]: 0; Rice plant response rating (0 to 100 scale) (rice (Oryza sativa)): 0; Ducksalad plant response rating (0 to 100 scale) [11]: 0; Kochia plant response rating (0 to 100 scale) (kochia (Kochia scoparia) [12]; 125 g ai/ha): 0; Kochia plant response rating (0 to 100 scale) (kochia (Kochia scoparia) [12]; 500 g ai/ha): 0; Ragweed plant response rating (0 to 100 scale) ([13]; 125 g ai/ha): 0; Ragweed plant response rating (0 to 100 scale) ([13]; 500 g ai/ha): 0; Foxtail, Giant plant response rating (0 to 100 scale) ([14]; 125 g ai/ha): 90; Foxtail, Giant plant response rating (0 to 100 scale) ([14]; 500 g ai/ha): 90; Pigweed plant response rating (0 to 100 scale) ([15]; 125 g ai/ha): 0; Pigweed plant response rating (0 to 100 scale) ([15]; 500 g ai/ha): 0; Ryegrass, Italian plant response rating (0 to 100 scale) [16]: 80; Barnyardgrass plant response rating (0 to 100 scale) ([17]; 125 g ai/ha): 80; Barnyardgrass plant response rating (0 to 100 scale) ([17]; 500 g ai/ha): 90
4 | CC1=[N+]([O-])C(C(=O)Nc2cccc(F)c2F)C(c2cccc(Cl)c2C)C1 (racemic) [Compound 117] | 60 | 80 | 60 | 70 | 70 | 70 | 0 | 60 | 0 | 60 | 80 | 90 | 0 | 70 | 20 | 80 | 30 | 70 | 30 | 60 | Barnyardgrass plant response rating (0 to 100 scale) [10]: 0; Rice plant response rating (0 to 100 scale) (rice (Oryza sativa)): 0; Ducksalad plant response rating (0 to 100 scale) [11]: 0; Kochia plant response rating (kochia (Kochia scoparia) [12]; 125 g ai/ha): 10; Kochia plant response rating (0 to 100 scale) (kochia (Kochia scoparia) [12]; 500 g ai/ha): 80; Ragweed plant response rating ([13]; 125 g ai/ha): 30; Ragweed plant response rating (0 to 100 scale) ([13]; 500 g ai/ha): 90; Foxtail, Giant plant response rating ([14]; 125 g ai/ha): 90; Foxtail, Giant plant response rating (0 to 100 scale) ([14]; 500 g ai/ha): 90; Pigweed plant response rating ([15]; 125 g ai/ha): 60; Pigweed plant response rating (0 to 100 scale) ([15]; 500 g ai/ha): 80; Ryegrass, Italian plant response rating [16]: 60; Ryegrass, Italian plant response rating (0 to 100 scale) [16]: 90; Barnyardgrass plant response rating ([17]; 125 g ai/ha): 90; Barnyardgrass plant response rating (0 to 100 scale) ([17]; 500 g ai/ha): 90
5 | CC1=[N+]([O-])C(C(=O)Nc2cccc(F)c2F)C(c2cccc3c2CCC3)C1 (racemic) [Compound 118] | 60 | 80 | 50 | 70 | 50 | 50 | 50 | 60 | 0 | 70 | 50 | 90 | 0 | 30 | 40 | 80 | 70 | 80 | 50 | 90 | Barnyardgrass plant response rating (0 to 100 scale) [10]: 95; Rice plant response rating (0 to 100 scale) (rice (Oryza sativa)): 15; Ducksalad plant response rating (0 to 100 scale) [11]: 90; Kochia plant response rating (kochia (Kochia scoparia) [12]; 125 g ai/ha): 20; Kochia plant response rating (0 to 100 scale) (kochia (Kochia scoparia) [12]; 500 g ai/ha): 80; Ragweed plant response rating ([13]; 125 g ai/ha): 70; Ragweed plant response rating (0 to 100 scale) ([13]; 500 g ai/ha): 90; Foxtail, Giant plant response rating ([14]; 125 g ai/ha): 90; Foxtail, Giant plant response rating (0 to 100 scale) ([14]; 500 g ai/ha): 100; Pigweed plant response rating ([15]; 125 g ai/ha): 40; Pigweed plant response rating (0 to 100 scale) ([15]; 500 g ai/ha): 80; Ryegrass, Italian plant response rating [16]: 90; Ryegrass, Italian plant response rating (0 to 100 scale) [16]: 100; Barnyardgrass plant response rating ([17]; 125 g ai/ha): 90; Barnyardgrass plant response rating (0 to 100 scale) ([17]; 500 g ai/ha): 100
